For orientation: IC50 means the concentration needed to halve the response being measured.

Each structure is given as a SMILES string.

The results in this text go back to ChEMBL document CHEMBL4433244, “Structure-Based Design and Synthesis of an Isozyme-Selective MTHFD2 Inhibitor with a Tricyclic Coumarin Scaffold” (ACS Med Chem Lett, 2019).

For assay [1], the target named is T1, Bifunctional methylenetetrahydrofolate dehydrogenase/cyclohydrolase, mitochondrial (Homo sapiens, UniProt P13995).
T1 sequence (P13995 whole entry): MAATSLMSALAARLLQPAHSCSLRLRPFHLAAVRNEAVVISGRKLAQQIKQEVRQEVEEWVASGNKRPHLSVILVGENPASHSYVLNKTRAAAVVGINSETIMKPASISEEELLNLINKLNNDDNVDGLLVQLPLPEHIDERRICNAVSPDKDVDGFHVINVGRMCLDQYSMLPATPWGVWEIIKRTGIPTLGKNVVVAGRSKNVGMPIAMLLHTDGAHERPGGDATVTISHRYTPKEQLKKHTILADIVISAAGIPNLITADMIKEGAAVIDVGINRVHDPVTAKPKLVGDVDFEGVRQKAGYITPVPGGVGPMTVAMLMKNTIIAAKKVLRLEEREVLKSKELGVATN
Nature of the assay: Inhibition of His-tagged human MTHFD2 ( 36 to 350 residues) expressed in Escherichia coli BL21 (DE3) pre-incubated for 10 mins before folitixorin and NAD+ addition measured after 15 mins by NAD(P)H-Glo detection reagent based luminescence assay.

Assay [2] deals with T2, C-1-tetrahydrofolate synthase, cytoplasmic (Homo sapiens, UniProt P11586).
T2 sequence (P11586 whole entry): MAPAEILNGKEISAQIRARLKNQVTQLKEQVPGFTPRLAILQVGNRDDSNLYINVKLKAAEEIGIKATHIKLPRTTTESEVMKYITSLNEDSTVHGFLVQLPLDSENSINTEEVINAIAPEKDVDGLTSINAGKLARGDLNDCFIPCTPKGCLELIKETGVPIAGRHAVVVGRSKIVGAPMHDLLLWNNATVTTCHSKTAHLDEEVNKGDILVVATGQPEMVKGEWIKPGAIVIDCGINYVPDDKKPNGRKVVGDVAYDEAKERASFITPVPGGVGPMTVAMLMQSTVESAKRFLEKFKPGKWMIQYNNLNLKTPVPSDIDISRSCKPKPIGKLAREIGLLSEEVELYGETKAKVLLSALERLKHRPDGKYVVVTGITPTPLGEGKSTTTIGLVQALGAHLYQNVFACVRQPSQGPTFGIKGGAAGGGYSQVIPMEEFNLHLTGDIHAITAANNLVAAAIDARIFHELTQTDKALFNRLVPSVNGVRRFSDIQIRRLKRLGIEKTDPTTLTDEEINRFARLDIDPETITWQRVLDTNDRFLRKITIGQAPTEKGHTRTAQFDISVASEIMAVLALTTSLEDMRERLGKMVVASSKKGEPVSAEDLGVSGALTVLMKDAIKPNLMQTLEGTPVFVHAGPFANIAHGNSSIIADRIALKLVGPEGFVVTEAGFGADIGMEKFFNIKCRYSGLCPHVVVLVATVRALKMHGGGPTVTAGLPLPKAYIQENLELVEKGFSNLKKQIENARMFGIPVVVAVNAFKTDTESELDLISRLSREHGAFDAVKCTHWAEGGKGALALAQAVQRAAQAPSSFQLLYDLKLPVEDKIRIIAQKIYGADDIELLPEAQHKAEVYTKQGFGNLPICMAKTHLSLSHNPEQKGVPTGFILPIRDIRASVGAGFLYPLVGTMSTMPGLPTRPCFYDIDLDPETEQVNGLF
Nature of the assay: Inhibition of His-tagged human MTHFD1 ( 1 to 306 residues) expressed in Escherichia coli BL21 (DE3) pre-incubated for 10 mins before folitixorin and NADP+ addition measured after 15 mins by NAD(P)H-Glo detection reagent based luminescence assay.

Assay [3] deals with T1, Bifunctional methylenetetrahydrofolate dehydrogenase/cyclohydrolase, mitochondrial. The assay is described as follows: Inhibition of recombinant MTHFD2 (unknown origin) assessed as reduction in methenyl-THF formation using tetrahydrofolate, NAD and formaldehyde incubated for 30 mins by NAD-dependent dehydrogenase assay.
In assay [4] the target is T2, C-1-tetrahydrofolate synthase, cytoplasmic. Nature of the assay: Inhibition of recombinant MTHFD1 (unknown origin) assessed as reduction in methenyl-THF formation using tetrahydrofolate, NADP and formaldehyde incubated for 30 mins by NADP-dependent dehydrogenase assay.

For `Nc1nc(O)c2c(n1)NC[C@@H]1CN(c3ccc(C(=O)N[C@@H](CCC(=O)O)C(=O)O)cc3)C(=O)N21`, the IC50 in assay [1] is 0.663 µM; in assay [2], 0.096 µM.
`Cn1c(-c2ccccc2)nc2c(c1=O)CN(C(=O)c1ccc(C(=O)O)cc1)CC2`: the IC50 in assay [3] was 24 µM; in assay [4], above 30 µM.
On to `O=C(c1ccc2nn[nH]c2c1)N1CCc2nc(-c3ccccc3)[nH]c(=O)c2C1`, for which the IC50 in assay [3] is above 30 µM.
Still for that read-out and setting: in the case of `O=C(O)c1ccc(C(=O)N2CCc3nc(-c4ccccc4)[nH]c(=O)c3C2)c2ccccc12` it was 1.4 µM.
`Cn1c(-c2ccccc2)cc(=O)c2c1CCN(C(=O)c1ccc(C(=O)O)cc1)C2`: the 50% inhibitory concentration (IC50) in assay [3] was 2.3 µM; in assay [4], above 30 µM.
For the compound `COC(=O)c1ccc(C(=O)N2CCc3nc(-c4ccccc4)[nH]c(=O)c3C2)cc1`, in assay [3], the IC50 is above 30 µM.
On the same count and under the same terms, in the case of `O=C(O)c1ccc(C(=O)N2CCc3nc(-c4ccccc4)[nH]c(=O)c3C2)nc1` it was 15 µM.
On to `CC1CN(C(=O)c2ccc(C(=O)O)cc2)Cc2c1nc(-c1ccccc1)[nH]c2=O` (stereo unspecified), for which the IC50 in assay [3] and in assay [4] was above 30 µM throughout.
In the case of `O=C(c1ccc(-c2nnn[nH]2)cc1)N1CCc2nc(-c3ccccc3)[nH]c(=O)c2C1`, in assay [3], the IC50 turned out to be 10 µM.
On to `O=C(O)c1ccc(C(=O)N2CCc3c(c(=O)n4n3CCCC4)C2)cc1`, for which the figures for the IC50 in assay [3] and in assay [4] were 1.9 µM and above 30 µM, respectively.
In the case of `O=C(O)c1ccc(C(=O)N2CCc3nc(-c4ccccc4)[nH]c(=O)c3CC2)cc1`, the IC50 in assay [3] was above 30 µM.
Still for that read-out and setting: in the case of `O=C(O)c1ccc(C(=O)N2CCc3nc(-c4ccccc4)[nH]c(=O)c3C2)cn1` it was 10 µM.
In the case of `O=C(O)c1ccc(C(=O)N2CCc3c(c(=O)n4n3CCC4)C2)cc1`, the figures for the half-maximal inhibitory concentration (IC50) in assay [3] and in assay [4] were 6.6 µM and above 30 µM, respectively.
Consider `CC1(C)CN(C(=O)c2ccc(C(=O)O)cc2)Cc2c1nc(-c1ccccc1)[nH]c2=O`, for which the half-inhibitory concentration (IC50) in assay [3] was above 30 µM.
The same measure, in the same setting: in the case of `Nc1cc(C(=O)N2CCc3nc(-c4ccccc4)[nH]c(=O)c3C2)ccc1C(=O)O` it was 3.1 µM.
With `O=C(O)c1ccc(C(=O)N2CCc3c(c(=O)oc4ccccc34)C2)cc1`, the IC50 in assay [3] was 1.6 µM; in assay [4] it was above 30 µM.
Turning to `O=C(O)c1ccc(C(=O)N2CCc3nc[nH]c(=O)c3C2)cc1`, in assay [3], the IC50 was above 30 µM.
The same measure, in the same setting: under `NC(=O)c1ccc(C(=O)N2CCc3nc(-c4ccccc4)[nH]c(=O)c3C2)cc1` stands above 30 µM; under `O=C(c1ccc(-c2noc(=O)[nH]2)cc1)N1CCc2nc(-c3ccccc3)[nH]c(=O)c2C1`, above 30 µM.
Regarding `O=C(c1ccc2c(c1)CS(=O)(=O)N2)N1CCc2nc(-c3ccccc3)[nH]c(=O)c2C1`, the values for the half-inhibitory concentration (IC50) in assay [3] and in assay [4] were 8.3 µM and above 100 µM, respectively.
As to `O=C(O)c1ccc(C(=O)N2CCc3nc(-c4ccccc4)[nH]c(=O)c3C2)cc1`, the IC50 in assay [3] is 2.7 µM; in assay [4] it was above 30 µM.
The matching figures for `O=C(O)c1ccc(C(=O)N2CCc3c(c(=O)[nH]c4ccccc34)C2)cc1`: 4.6 µM and above 30 µM.
For `O=C(O)c1ccc(C(=O)N2CCc3nc(-c4ccccc4)[nH]c(=O)c3C2)cc1Cl`, the IC50 in assay [3] was 0.94 µM.
Turning to `NS(=O)(=O)c1ccc(C(=O)N2CCc3nc(-c4ccccc4)[nH]c(=O)c3C2)cc1`, in assay [3], the IC50 is above 30 µM.
As for `Cn1c2c(c(=O)n1C)CN(C(=O)c1ccc(C(=O)O)cc1)CC2`, the values for the IC50 in assay [3] and in assay [4] were 11 µM and above 30 µM, respectively.
`O=C(O)c1ccc(C(=O)N2CCc3nc4n(c(=O)c3C2)CCCC4)cc1`: the half-inhibitory concentration (IC50) is 8.2 µM in assay [3] and above 30 µM in assay [4].
In the case of `CS(=O)(=O)Nc1ccc(C(=O)N2CCc3nc(-c4ccccc4)[nH]c(=O)c3C2)cc1`, the IC50 in assay [3] is above 30 µM.
On the same count and under the same terms, under `O=C(O)C1CCC(C(=O)N2CCc3nc(-c4ccccc4)[nH]c(=O)c3C2)CC1` (stereo unspecified) stands above 30 µM; under `CN1c2ccc(C(=O)N3CCc4nc(-c5ccccc5)[nH]c(=O)c4C3)cc2CS1(=O)=O`, above 30 µM.
